System: MV-4-11 cells
Experiment: Gene expression microarray analysis (Affymetrix PrimeView) and GSEA
Assay type: cell-based, human
Set-up: RFU PODN (11730768_x_at) / Fold change /veh PODN (11730768_x_at) / RFU LINC00158 (11744669_a_at) / Fold change /veh LINC00158 (11744669_a_at) / RFU DUSP10 (11751237_a_at) / Fold change /veh DUSP10 (11751237_a_at) / RFU ID3 (11757404_x_at) / Fold change /veh ID3 (11757404_x_at) / RFU PLEKHG5 (11737974_s_at) / Fold change /veh PLEKHG5 (11737974_s_at) / RFU LRRC4B (11730491_at) / Fold change /veh LRRC4B (11730491_at) / RFU GIMAP4 (11747438_a_at) / Fold change /veh GIMAP4 (11747438_a_at) / RFU KRT8 (11758183_x_at) / Fold change /veh KRT8 (11758183_x_at) / RFU CNN1 (11734310_a_at) / Fold change /veh CNN1 (11734310_a_at) / RFU VPS37D (11726825_at) / Fold change /veh VPS37D (11726825_at) / RFU C10orf10 (11716522_x_at) / Fold change /veh C10orf10 (11716522_x_at) / RFU KIR2DL2 /// KIR2DL4 /// KIR2DL5A /// KIR2DL5B /// KIR2DS1 /// KIR2DS2 /// KIR2DS3 /// KIR2DS4 /// KIR3DL3 /// KIR3DL3 /// KIR3DS1 (11738374_at) / Fold change /veh KIR2DL2 /// KIR2DL4 /// KIR2DL5A /// KIR2DL5B /// KIR2DS1 /// KIR2DS2 /// KIR2DS3 /// KIR2DS4 /// KIR3DL3 /// KIR3DL3 /// KIR3DS1 (11738374_at) / RFU C1QL1 (11718748_at) / Fold change /veh C1QL1 (11718748_at) / RFU TMPRSS4 (11747572_a_at) / Fold change /veh TMPRSS4 (11747572_a_at) / RFU HAMP (11756126_x_at) / Fold change /veh HAMP (11756126_x_at) / RFU RNFT2 (11725882_a_at) / Fold change /veh RNFT2 (11725882_a_at) / RFU NR4A2 (11747474_a_at) / Fold change /veh NR4A2 (11747474_a_at) / RFU ABCC12 (11746883_a_at) / Fold change /veh ABCC12 (11746883_a_at) / RFU TMEM136 (11760407_x_at) / Fold change /veh TMEM136 (11760407_x_at) / RFU CLDN22 /// WWC2 (11732394_at) / Fold change /veh CLDN22 /// WWC2 (11732394_at) / RFU HLA-DPB1 (11760878_x_at) / Fold change /veh HLA-DPB1 (11760878_x_at) / RFU SPINT1 (11716480_a_at) / Fold change /veh SPINT1 (11716480_a_at) / RFU GAP43 (11754022_s_at) / Fold change /veh GAP43 (11754022_s_at) / RFU A4GNT (11735810_at) / Fold change /veh A4GNT (11735810_at) / RFU PRB3 (11715151_x_at) / Fold change /veh PRB3 (11715151_x_at) / RFU TUBB4B (11761932_at) / Fold change /veh TUBB4B (11761932_at) / RFU CAPN14 (11732068_a_at) / Fold change /veh CAPN14 (11732068_a_at) / RFU TMCC2 (11721928_a_at) / Fold change /veh TMCC2 (11721928_a_at) / RFU IRGQ (11745062_a_at) / Fold change /veh IRGQ (11745062_a_at) / RFU FAM174B (11720279_a_at) / Fold change /veh FAM174B (11720279_a_at) / RFU TMPRSS4 (11748680_a_at) / Fold change /veh TMPRSS4 (11748680_a_at) / RFU FAM212B (11763350_a_at) / Fold change /veh FAM212B (11763350_a_at) / RFU PLEKHG5 (11743358_a_at) / Fold change /veh PLEKHG5 (11743358_a_at) / RFU ZSCAN30 (11745921_a_at) / Fold change /veh ZSCAN30 (11745921_a_at) / RFU CMKLR1 (11741424_a_at) / Fold change /veh CMKLR1 (11741424_a_at) / RFU LOC101060620 /// MAPK8IP1 (11723275_at) / Fold change /veh LOC101060620 /// MAPK8IP1 (11723275_at) / RFU SPTSSB (11747773_x_at) / Fold change /veh SPTSSB (11747773_x_at) / RFU PRSS12 (11739890_at) / Fold change /veh PRSS12 (11739890_at) / RFU BIN1 (11741810_x_at) / Fold change /veh BIN1 (11741810_x_at) / RFU WNT11 (11732464_a_at) / Fold change /veh WNT11 (11732464_a_at) / RFU C10orf10 (11716521_a_at) / Fold change /veh C10orf10 (11716521_a_at) / RFU C5orf56 (11738089_at) / Fold change /veh C5orf56 (11738089_at) / RFU CYB561 (11721691_x_at) / Fold change /veh CYB561 (11721691_x_at) / RFU ANKRD19P (11752326_a_at) / Fold change /veh ANKRD19P (11752326_a_at) / RFU OR2T12 /// OR2T33 /// OR2T8 (11738714_s_at) / Fold change /veh OR2T12 /// OR2T33 /// OR2T8 (11738714_s_at) / RFU VCAN (11748164_a_at) / Fold change /veh VCAN (11748164_a_at) / RFU JSRP1 (11732532_at) / Fold change /veh JSRP1 (11732532_at) / RFU KRTAP10-11 (11738290_x_at) / Fold change /veh KRTAP10-11 (11738290_x_at) / RFU MYO3A (11730013_a_at) / Fold change /veh MYO3A (11730013_a_at) / RFU EBF3 (11725865_a_at) / Fold change /veh EBF3 (11725865_a_at) / RFU CAMK2N1 (11719241_x_at) / Fold change /veh CAMK2N1 (11719241_x_at) / RFU C5orf56 (11738088_a_at) / Fold change /veh C5orf56 (11738088_a_at) / RFU OLFML3 (11715873_a_at) / Fold change /veh OLFML3 (11715873_a_at) / RFU LOC100653217 /// NTM (11731650_a_at) / Fold change /veh LOC100653217 /// NTM (11731650_a_at) / RFU MAPK11 (11762145_a_at) / Fold change /veh MAPK11 (11762145_a_at) / RFU FIZ1 (11724087_x_at) / Fold change /veh FIZ1 (11724087_x_at) / RFU OASL (11726364_x_at) / Fold change /veh OASL (11726364_x_at) / RFU SOX15 (11748057_x_at) / Fold change /veh SOX15 (11748057_x_at) / RFU CD79A (11719716_a_at) / Fold change /veh CD79A (11719716_a_at) / RFU HIST1H1D (11736915_at) / Fold change /veh HIST1H1D (11736915_at) / RFU CASKIN2 (11723855_a_at) / Fold change /veh CASKIN2 (11723855_a_at) / RFU LOC730098 (11760151_x_at) / Fold change /veh LOC730098 (11760151_x_at) / RFU OR4N2 (11742367_at) / Fold change /veh OR4N2 (11742367_at) / RFU PRRT2 (11749266_a_at) / Fold change /veh PRRT2 (11749266_a_at) / RFU SNX32 (11753110_a_at) / Fold change /veh SNX32 (11753110_a_at) / RFU CDHR5 (11726645_a_at) / Fold change /veh CDHR5 (11726645_a_at) / RFU RCAN1 (11760418_a_at) / Fold change /veh RCAN1 (11760418_a_at) / RFU FAM167A (11723789_a_at) / Fold change /veh FAM167A (11723789_a_at) / RFU FAM26E (11764081_at) / Fold change /veh FAM26E (11764081_at) / RFU ISYNA1 (11749810_s_at) / Fold change /veh ISYNA1 (11749810_s_at) / RFU ACY1 (11761880_at) / Fold change /veh ACY1 (11761880_at) / RFU 11764098_at / Fold change /veh 11764098_at / RFU SAMD14 (11745864_x_at) / Fold change /veh SAMD14 (11745864_x_at) / RFU NPB (11741838_a_at) / Fold change /veh NPB (11741838_a_at) / RFU TMPRSS6 (11731388_a_at) / Fold change /veh TMPRSS6 (11731388_a_at) / RFU KRTAP10-2 (11738614_at) / Fold change /veh KRTAP10-2 (11738614_at) / RFU ARHGAP8 /// PRR5-ARHGAP8 (11727945_x_at) / Fold change /veh ARHGAP8 /// PRR5-ARHGAP8 (11727945_x_at) / RFU KRTAP5-7 /// NADSYN1 (11734609_at) / Fold change /veh KRTAP5-7 /// NADSYN1 (11734609_at) / RFU RASL12 (11751679_a_at) / Fold change /veh RASL12 (11751679_a_at) / RFU CDKN2B (11736163_a_at) / Fold change /veh CDKN2B (11736163_a_at) / RFU PRF1 (11729649_at) / Fold change /veh PRF1 (11729649_at) / RFU, ZNF638 /// ZNF638-IT1 / Fold change vs veh, ZNF638 /// ZNF638-IT1 / RFU, PANK3 / Fold change vs veh, PANK3 / RFU, SH3YL1 / Fold change vs veh, SH3YL1 / RFU, ZEB2 / Fold change vs veh, ZEB2 / RFU, NRIP1 / Fold change vs veh, NRIP1 / RFU, PTTG1IP / Fold change vs veh, PTTG1IP / RFU, CAPN2 / Fold change vs veh, CAPN2 / RFU, MED14 / Fold change vs veh, MED14 / RFU, SNORA58 / Fold change vs veh, SNORA58 / RFU, C1orf63 / Fold change vs veh, C1orf63 / RFU, LRRFIP1 / Fold change vs veh, LRRFIP1 / RFU, NDUFAF7 / Fold change vs veh, NDUFAF7 / RFU, SLC12A2 / Fold change vs veh, SLC12A2 / RFU, IBTK / Fold change vs veh, IBTK / RFU, ESF1 / Fold change vs veh, ESF1 / Fold change vs veh, TMEM50B / RFU, TAOK1 / Fold change vs veh, TAOK1 / RFU, ACBD3 / Fold change vs veh, ACBD3 / RFU, TMA16 / Fold change vs veh, TMA16 / RFU, RWDD3 / Fold change vs veh, RWDD3 / RFU, BCAT1 / Fold change vs veh, BCAT1 / RFU, EDEM3 / Fold change vs veh, EDEM3 / RFU, TMEM33 / Fold change vs veh, TMEM33 / RFU, WDR75 / Fold change vs veh, WDR75 / RFU, AHCTF1 / Fold change vs veh, AHCTF1 / RFU, TFRC / Fold change vs veh, TFRC / RFU, ZDHHC17 / Fold change vs veh, ZDHHC17 / RFU, NOM1 / Fold change vs veh, NOM1 / RFU, ARL8B / Fold change vs veh, ARL8B / RFU, ZBTB11 / Fold change vs veh, ZBTB11 / RFU, TAMM41 / Fold change vs veh, TAMM41 / RFU, KIAA1704 /// LOC100996395 / Fold change vs veh, KIAA1704 /// LOC100996395 / RFU, ING1 / Fold change vs veh, ING1 / RFU, TRMT61B / Fold change vs veh, TRMT61B / RFU, FUBP3 / Fold change vs veh, FUBP3 / RFU, TP53 / Fold change vs veh, TP53 / RFU, TNKS2 / Fold change vs veh, TNKS2 / RFU, ZFP14 / Fold change vs veh, ZFP14 / RFU, ACTR2 / Fold change vs veh, ACTR2 / RFU, PPP3R1 / Fold change vs veh, PPP3R1 / RFU, PIK3R1 / Fold change vs veh, PIK3R1 / RFU, HNRNPA1 / Fold change vs veh, HNRNPA1 / RFU, RNF170 / Fold change vs veh, RNF170 / RFU, ZNF28 / Fold change vs veh, ZNF28 / RFU, RNGTT / Fold change vs veh, RNGTT / RFU, OGT / Fold change vs veh, OGT / RFU, BRD1 / Fold change vs veh, BRD1 / RFU, MARS / Fold change vs veh, MARS / RFU, ZNF655 / Fold change vs veh, ZNF655 / RFU, FAHD1 / Fold change vs veh, FAHD1 / RFU, BDP1 / Fold change vs veh, BDP1 / RFU, LRRCC1 / Fold change vs veh, LRRCC1 / RFU, ARID1A / Fold change vs veh, ARID1A / RFU, ZNF146 / Fold change vs veh, ZNF146 / RFU, ZNF330 / Fold change vs veh, ZNF330 / RFU, GPN3 / Fold change vs veh, GPN3 / RFU, C9orf123 / Fold change vs veh, C9orf123 / RFU, N4BP2L2 / Fold change vs veh, N4BP2L2 / RFU, ARFIP1 / Fold change vs veh, ARFIP1 / RFU, FAM179B / Fold change vs veh, FAM179B / RFU, BCL10 / Fold change vs veh, BCL10 / RFU, UHRF1BP1L / Fold change vs veh, UHRF1BP1L / RFU, BET1 / Fold change vs veh, BET1 / RFU, CNOT2 / Fold change vs veh, CNOT2 / RFU, ZNF268 / Fold change vs veh, ZNF268 / Fold change vs veh, ZNF507 / RFU, DGCR2 / Fold change vs veh, DGCR2 / RFU, WDSUB1 / Fold change vs veh, WDSUB1 / Fold change vs veh, HSP90B1 /// MIR3652 / RFU, ADSS / Fold change vs veh, ADSS / RFU, GK / Fold change vs veh, GK / RFU, ZNF148 / Fold change vs veh, ZNF148 / RFU, TAF9 / Fold change vs veh, TAF9 / RFU, SLC1A5 / Fold change vs veh, SLC1A5 / RFU, SLMO2 / Fold change vs veh, SLMO2 / RFU, ABCC4 / Fold change vs veh, ABCC4 / RFU, LOC101060439 /// RAP1B / Fold change vs veh, LOC101060439 /// RAP1B / RFU, RFX7 / Fold change vs veh, RFX7 / RFU, GTPBP10 / Fold change vs veh, GTPBP10 / RFU, CNEP1R1 / Fold change vs veh, CNEP1R1 / RFU, BIVM-ERCC5 /// ERCC5 / Fold change vs veh, BIVM-ERCC5 /// ERCC5 / RFU, ILF3 / Fold change vs veh, ILF3 / RFU 11762660_at / Fold change /veh 11762660_at / RFU VCAN (11757783_s_at) / Fold change /veh VCAN (11757783_s_at) / RFU DDX43 (11728927_at) / Fold change /veh DDX43 (11728927_at) / RFU KRT8 (11758188_x_at) / Fold change /veh KRT8 (11758188_x_at) / RFU NKD1 (11759106_at) / Fold change /veh NKD1 (11759106_at) / RFU SRD5A1 (11742802_a_at) / Fold change /veh SRD5A1 (11742802_a_at) / RFU TPSAB1 /// TPSB2 (11721975_s_at) / Fold change /veh TPSAB1 /// TPSB2 (11721975_s_at) / RFU GSTM3 (11746129_a_at) / Fold change /veh GSTM3 (11746129_a_at) / RFU IL23R (11737362_x_at) / Fold change /veh IL23R (11737362_x_at) / RFU TMEM51 (11727254_a_at) / Fold change /veh TMEM51 (11727254_a_at) / RFU PIWIL2 (11732686_x_at) / Fold change /veh PIWIL2 (11732686_x_at) / RFU ORM1 (11744905_x_at) / Fold change /veh ORM1 (11744905_x_at) / RFU CCDC152 (11743942_at) / Fold change /veh CCDC152 (11743942_at) / RFU ECM1 (11717891_a_at) / Fold change /veh ECM1 (11717891_a_at) / RFU IL23R (11748794_a_at) / Fold change /veh IL23R (11748794_a_at) / RFU TNFAIP8L3 (11732012_x_at) / Fold change /veh TNFAIP8L3 (11732012_x_at) / RFU MBOAT4 (11741988_at) / Fold change /veh MBOAT4 (11741988_at) / RFU 11764193_at / Fold change /veh 11764193_at / RFU TMEM53 (11763286_at) / Fold change /veh TMEM53 (11763286_at) / RFU MAGEB2 (11727129_at) / Fold change /veh MAGEB2 (11727129_at) / RFU TMEM200A (11744735_a_at) / Fold change /veh TMEM200A (11744735_a_at) / RFU CCDC152 (11751479_a_at) / Fold change /veh CCDC152 (11751479_a_at) / RFU FAM211A (11726209_a_at) / Fold change /veh FAM211A (11726209_a_at) / RFU RGS16 (11746705_a_at) / Fold change /veh RGS16 (11746705_a_at) / RFU VCAN (11755009_s_at) / Fold change /veh VCAN (11755009_s_at) / RFU RHOB (11743442_s_at) / Fold change /veh RHOB (11743442_s_at) / RFU RGS16 (11720943_a_at) / Fold change /veh RGS16 (11720943_a_at) / RFU RGS16 (11720944_at) / Fold change /veh RGS16 (11720944_at) / RFU, VPS4B / Fold change vs veh, VPS4B / RFU, CREB1 / Fold change vs veh, CREB1 / RFU, DNAJC13 / Fold change vs veh, DNAJC13 / RFU, GNAQ / Fold change vs veh, GNAQ / RFU, CDK5R1 / Fold change vs veh, CDK5R1 / RFU, ZRANB3 / Fold change vs veh, ZRANB3 / RFU, CUL4A / Fold change vs veh, CUL4A / RFU, CCNY / Fold change vs veh, CCNY / RFU, UFL1 / Fold change vs veh, UFL1 / RFU, COG3 / Fold change vs veh, COG3 / RFU, DIAPH2 / Fold change vs veh, DIAPH2 / RFU, SKA2 / Fold change vs veh, SKA2 / RFU, AFF3 / Fold change vs veh, AFF3 / RFU, LMF1 / Fold change vs veh, LMF1 / RFU, IPO11 / Fold change vs veh, IPO11 / RFU, DFFB / Fold change vs veh, DFFB / RFU, FOXP1 / Fold change vs veh, FOXP1 / RFU, CARD8 / Fold change vs veh, CARD8 / RFU, STRN3 / Fold change vs veh, STRN3 / RFU, ADK / Fold change vs veh, ADK / RFU, RASSF2 / Fold change vs veh, RASSF2 / RFU, WIPF1 / Fold change vs veh, WIPF1 / RFU, LARP1B / Fold change vs veh, LARP1B / RFU, RASA1 / Fold change vs veh, RASA1 / RFU, RB1 / Fold change vs veh, RB1 / RFU, PPFIA1 / Fold change vs veh, PPFIA1 / RFU, MAT2A / Fold change vs veh, MAT2A / RFU, CCT5 / Fold change vs veh, CCT5 / RFU, WDR92 / Fold change vs veh, WDR92 / RFU, CUX1 / Fold change vs veh, CUX1 / RFU, TTC7A / Fold change vs veh, TTC7A / RFU, TMEM135 / Fold change vs veh, TMEM135 / RFU, DEPTOR / Fold change vs veh, DEPTOR / RFU, CPM / Fold change vs veh, CPM / RFU, DNAJB6 / Fold change vs veh, DNAJB6 / RFU, CACNA2D3 / Fold change vs veh, CACNA2D3 / RFU, DTX4 / Fold change vs veh, DTX4 / RFU, TFCP2 / Fold change vs veh, TFCP2 / RFU, GMCL1 /// GMCL1P1 / Fold change vs veh, GMCL1 /// GMCL1P1 / RFU, AEBP2 / Fold change vs veh, AEBP2 / RFU, SNHG1 /// SNORD22 /// SNORD25 /// SNORD26 /// SNORD27 /// SNORD28 /// SNORD29 /// SNORD31 / Fold change vs veh, SNHG1 /// SNORD22 /// SNORD25 /// SNORD26 /// SNORD27 /// SNORD28 /// SNORD29 /// SNORD31 / Fold change (Aza/veh), C12orf56 (ProbeSet 11735607_a_at) / Fold change (ACY-1035/veh), C12orf56 (ProbeSet 11735607_a_at) / Fold change (Aza/veh), FGFR1OP (ProbeSet 11751329_s_at) / Fold change (ACY-1035/veh), FGFR1OP (ProbeSet 11751329_s_at) / Fold change (Aza/veh), VPS36 (ProbeSet 11739960_a_at) / Fold change (ACY-1035/veh), VPS36 (ProbeSet 11739960_a_at) / RFU SYPL1 (11715823_x_at) / Fold change /veh SYPL1 (11715823_x_at) / RFU IGFBP7 (11715501_s_at) / Fold change /veh IGFBP7 (11715501_s_at) / RFU REEP3 (11722064_at) / Fold change /veh REEP3 (11722064_at) / RFU IGLL1 (11728026_x_at) / Fold change /veh IGLL1 (11728026_x_at): dose or concentration left out as unconfirmed
Details: MV-4-11 cells, 48 hours

Nc1ccc(-c2cccs2)cc1NC(=O)c1ccc2c(c1)cc(C1CC1)n2CCN1CCOCC1 [ACY-1035]
RFU LOC101060620 /// MAPK8IP1 (11723275_at): 10.15 RFU
